# Laboratory results as given in publication PMC9230136 (Pharmaceutics, 2022).
# Where two headings read alike, the source gives them in different places.
# How the values were obtained:
# [1] = test system: A549; experiment: Antiproliferative assay (resazurin, 72 h); format: cell-based, human
# Outline: (§1)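 HT-29 grown in RPMI-1640, A549, HeLa and MDA-MB-231 in DMEM, both with 10% FBS. Seeded cells treated after 24 h with 5-fold serial dilutions from 10 μM, in triplicate, for 72 h at 37 °C. Viability read by resazurin fluorescence (ex 535/em 600 nm) after 3–4 h.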
# [2] = test system: HT-29; experiment: Antiproliferative assay (resazurin, 72 h); format: cell-based, human; conditions: mean ± SE, 72 h
# Outline: as §1
# [3] = test system: HeLa; experiment: Antiproliferative assay (resazurin, 72 h); format: cell-based, human
# Outline: as §1
# [4] = test system: Jurkat; experiment: Antiproliferative assay (resazurin, 72 h); format: cell-based, human; conditions: for IC50: mean ± SE, 72 h; for fold increase in activity relative to 7ad: Jurkat cells
# Outline: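 Compounds dissolved in DMSO as 10 mM stocks were applied to seeded Jurkat cells using 5-fold serial dilutions from 10 μM, with each condition run in triplicate. Following 72 h incubation, 10 μL of 100 μg/mL resazurin was added for 3–4 h, and fluorescence was measured at 535 nm excitation and 600 nm emission.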
# [5] = test system: MDA-MB-231; experiment: Antiproliferative assay (resazurin, 72 h); format: cell-based, human; conditions: for IC50: mean ± SE, 72 h
# Outline: as §1
# [6] = test system: A549, MDA-MB-231, HeLa, HT-29 and Jurkat cancer cell lines; experiment: Antiproliferative activity over the panel of cancer cell lines; format: cell-based, human; conditions: for fold reduction in potency (vs 7y): MDA-MB-231 and HT-29 cells
# Description: Colon adenocarcinoma (HT-29) and T-cell leukemia (Jurkat) cells were grown in RPMI-1640 medium (Gibco, Milano, Italy). Promyelocytic leukemia cells (HL-60), non-small cell lung carcinoma (A549), cervix carcinoma (HeLa) and breast adenocarcinoma (MDA-MB-231) cells were grown in DMEM medium (Gibco, Milano, Italy). Both media were supplemented with 115 units/mL of penicillin G (Gibco, Milano, Italy), 115 μg/mL of streptomycin (Invitrogen, Milano, Italy) and 10% fetal bovine serum (Invitrogen, Milano, Italy). All the cell lines used were purchased from the American Type Culture Collection (ATCC, Manassas, VA, USA). Stock solutions (10 mM) of the compounds were obtained by dissolving them in DMSO.
# The cells were seeded in 96-well plates at the appropriate density for each cell line. After 24 h, the cells were treated by performing serial 5-fold dilutions of the tested compounds starting from a concentration of 10 μM. All experimental conditions were tested in triplicate for statistical analysis. The plates were incubated for 72 h at 37 °C in a humidified 5% CO2 atmosphere. At the end of the incubation period, 10 μL of 100 μg/mL resazurin solution was added to each well; then, the plate was re-incubated for 3–4 h. The fluorescence of the wells in each plate was monitored using a Spark 10 M spectrophotometer (Tecan Group Ltd., Mannedorf, Switzerland) with a 535 nm excitation wavelength and a 600 nm emission wavelength.
# [7] = test system: Bovine brain tubulin; experiment: Inhibition of tubulin polymerization; format: biochemical; conditions: for IC50: tubulin at 10 μM, read-out: Tubulin Assembly IC50 ± SD
# Description: (§2) Bovine brain tubulin was purified as described previously. To evaluate the effects of the compounds on tubulin assembly in vitro [35], varying concentrations were preincubated with 10 μM tubulin in 0.8 M monosodium glutamate (pH 6.6) at 30 °C and the reaction mixtures then cooled to 0 °C. After addition of GTP, the mixtures were transferred to 0 °C cuvettes in Beckman Coulter (Brea, CA, USA) DU-7400/DU-7500 recording spectrophotometers equipped with electronic temperature controllers and warmed to 30 °C, and the assembly of tubulin was observed turbidimetrically. […] Inhibition of colchicine binding to tubulin was measured as described before, except that the reaction mixtures contained 0.5 μM tubulin and 5 μM each of [^3H]colchicine and test compound. Only one DEAE-cellulose filter was used per sample, and filtration was by gravity.
# [8] = test system: Bovine brain tubulin; experiment: Inhibition of [3H]colchicine binding to tubulin; conditions: tubulin 0.5 µM, [3H]colchicine 5 µM, compound 5 µM
# Description: as §2
# [9] = test system: A549; conditions: read-out: IC50 (compared with 8u on A549); cited from earlier work
# [10] = Homo sapiens, A549, Table 1, mean ± SE
# [11] = Homo sapiens, HeLa, Table 1, mean ± SE
# [12] = Homo sapiens, MDA-MB-231, Table 1
# [13] = Homo sapiens, all five lines, read-out: IC50 values against all five lines
# [14] = Homo sapiens, range over the five tumor lines, read-out: IC50 values, range over the cell lines
# [15] = Homo sapiens, A549, Table 2, mean ± SE
# [16] = Homo sapiens, HeLa, Table 2, mean ± SE
# [17] = Homo sapiens, MDA-MB-231, Table 2
# [18] = mean over the five cancer cell lines, read-out: mean IC50 (antiproliferative activity)
structure (smiles),measurement,setting,value
"COc1cc(Nc2cc(C)nc3nc(NCc4ccc(Cl)cc4)nn23)cc(OC)c1OC [Compound 7n, N^2-(4-Chlorobenzyl)-5-methyl-N^7-(3,4,5-trimethoxyphenyl)-[1,2,4]triazolo [1,5-a]pyrimidine-2,7-diamine]",IC50,[1]; [10],110 ± 22 nM
same,IC50,"[2]; Homo sapiens, HT-29, Table 1",54 ± 10 nM
same,IC50,[3]; [11],31 ± 10 nM
same,IC50,"[4]; Homo sapiens, Jurkat, Table 1",320 ± 19 nM
same,IC50,[5]; [12],190 ± 20 nM
same,fold reduction in activity vs 7l,[5]; MDA-MB-231 cells,3 fold
same,IC50,[6]; [13],< 1000 nM
same,IC50,[6]; [14],31 to 323 nM
same,fold increase in antiproliferative activity vs 7l,[6]; four of the five cell lines,17–60 fold
same,IC50,[7],390 ± 60 nM
same,Colchicine Binding % Inhibition ± SD,[8],30 ± 0.3%
same,melting point,,140 to 142 °C
"COc1cc(Nc2cc(C)nc3nc(NCc4ccc(C)cc4)nn23)cc(OC)c1OC [Compound 7p, 5-Methyl-N2-(4-methylbenzyl)-N7-(3,4,5-trimethoxyphenyl)-[1,2,4]triazolo [1,5-a]pyrimidine-2,7-diamine]",IC50,[1]; [10],420 ± 70 nM
same,IC50,"[2]; Homo sapiens, HT-29, Table 1",110 ± 20 nM
same,IC50,[3]; [11],60 ± 10 nM
same,IC50,"[4]; Homo sapiens, Jurkat, Table 1",430 ± 1 nM
same,IC50,[5]; [12],301 ± 40 nM
same,IC50,[6]; [13],< 1000 nM
same,IC50,[6]; [14],60 to 427 nM
same,fold more potent than 7g,[6]; all cancer cell lines,2–9 fold
same,fold less active than 7n,[6]; cell lines other than Jurkat,2–4 fold
same,IC50,"[6]; range over the five tumor lines, read-out: IC50 values, range over the cell lines",60 to 420 nM
same,IC50,[7],660 ± 100 nM
same,Colchicine Binding % Inhibition ± SD,[8],27 ± 3%
same,melting point,,146 to 148 °C
"COc1cc(Nc2cc(C)nc3nc(NCc4ccc5c(c4)OCO5)nn23)cc(OC)c1OC [Compound 7y, N^2-(Benzo[d][1,3]dioxol-5-ylmethyl)-5-methyl-N^7-(3,4,5-trimethoxyphenyl)-[1,2,4]triazolo [1,5-a]pyrimidine-2,7-diamine]",IC50,[1]; [10],660 ± 30 nM
same,IC50,"[2]; Homo sapiens, HT-29, Table 1",170 ± 20 nM
same,IC50,[3]; [11],110 ± 10 nM
same,IC50,"[4]; Homo sapiens, Jurkat, Table 1",780 ± 90 nM
same,IC50,[5]; [12],300 ± 20 nM
same,IC50,[6]; [13],< 1000 nM
same,IC50,[6]; [14],110 to 780 nM
same,fold increase in activity vs 7i,[6]; all five cell lines,6–28 fold
same,"fold less active than CA-4, tubulin polymerization",[7],1.5 fold
same,IC50,[7],1000 ± 200 nM
same,Colchicine Binding % Inhibition ± SD,[8],19 ± 05%
same,melting point,,190 to 192 °C
"Cc1cc(Nc2ccc(F)c(Cl)c2)n2nc(NCc3ccc4c(c3)OCO4)nc2n1 [Compound 8f, N^2-(Benzo[d][1,3]dioxol-5-ylmethyl)-N^7-(3-chloro-4-fluorophenyl)-5-methyl-[1,2,4]triazolo [1,5-a]pyrimidine-2,7-diamine]",IC50,[1]; [15],440 ± 50 nM
same,IC50,"[2]; Homo sapiens, HT-29, Table 2",300 ± 30 nM
same,IC50,[3]; [16],160 ± 90 nM
same,IC50,"[4]; Homo sapiens, Jurkat, Table 2",980 ± 60 nM
same,fold increase in activity relative to 7ad,[4],3-4 fold
same,IC50,[5]; [17],700 ± 160 nM
same,fold reduction in potency (vs 7y),[6],2–3 fold
same,melting point,,186 to 188 °C
"Cc1cc(Nc2ccc(F)cc2)n2nc(NCc3ccc4c(c3)OCO4)nc2n1 [Compound 8g, N^2-(Benzo[d][1,3]dioxol-5-ylmethyl)-N^7-(4-fluorophenyl)-5-methyl-[1,2,4]triazolo [1,5-a]pyrimidine-2,7-diamine]",IC50,[1]; [15],650 ± 280 nM
same,IC50,"[2]; Homo sapiens, HT-29, Table 2",260 ± 100 nM
same,IC50,[3]; [16],160 ± 70 nM
same,IC50,"[4]; Homo sapiens, Jurkat, Table 2",200 ± 50 nM
same,fold increase in activity relative to 7ad,[4],3-4 fold
same,IC50,[5]; [17],600 ± 210 nM
same,fold reduction in potency (vs 7y),[6],2–3 fold
same,melting point,,168 to 170 °C
"Cc1cc(Nc2ccc(Cl)cc2)n2nc(NCc3ccc4c(c3)OCO4)nc2n1 [Compound 8i, N^2-(Benzo[d][1,3]dioxol-5-ylmethyl)-N^7-(4-chlorophenyl)-5-methyl-[1,2,4]triazolo [1,5-a]pyrimidine-2,7-diamine]",IC50,[1]; [15],810 ± 220 nM
same,IC50,"[2]; Homo sapiens, HT-29, Table 2",600 ± 160 nM
same,IC50,[3]; [16],190 ± 120 nM
same,IC50,"[4]; Homo sapiens, Jurkat, Table 2",280 ± 50 nM
same,fold increase in activity relative to 7ad,[4],3-4 fold
same,IC50,[5]; [17],940 ± 340 nM
same,fold reduction in potency (vs 7y),[6],2–3 fold
same,melting point,,156 to 158 °C
"Cc1cc(Nc2ccc(Br)cc2)n2nc(NCc3ccc4c(c3)OCO4)nc2n1 [Compound 8l, N^2-(Benzo[d][1,3]dioxol-5-ylmethyl)-N^7-(4-bromophenyl)-5-methyl-[1,2,4]triazolo [1,5-a]pyrimidine-2,7-diamine]",IC50,[1]; [15],430 ± 180 nM
same,IC50,"[2]; Homo sapiens, HT-29, Table 2",420 ± 20 nM
same,IC50,[3]; [16],220 ± 40 nM
same,IC50,"[4]; Homo sapiens, Jurkat, Table 2",260 ± 50 nM
same,fold increase in activity relative to 7ad,[4],3-4 fold
same,IC50,[5]; [17],1270 ± 450 nM
same,fold reduction in potency (vs 7y),[6],2–3 fold
same,melting point,,182 to 184 °C
Cc1cc(Nc2ccc(Cl)cc2)n2nc(NCCCc3ccccc3)nc2n1 [Compound 8s],IC50,"[1]; Table 2, mean ± SE",70 ± 10 nM
same,IC50,[2]; Table 2,53 ± 1 nM
same,IC50,"[3]; Table 2, mean ± SE",48 ± 1 nM
same,IC50,[4]; Table 2,83 ± 20 nM
same,IC50,[5]; Table 2,200 ± 70 nM
same,IC50,[6]; [18],91 nM
same,"fold more potent than CA-4, tubulin polymerization",[7],about 2 fold
same,IC50,[7],390 ± 10 nM
same,Colchicine Binding % Inhibition ± SD,[8],88 ± 3%
Cc1cc(Nc2ccc(Br)cc2)n2nc(NCCCc3ccccc3)nc2n1 [Compound 8u],IC50,"[1]; Table 2, mean ± SE",48 ± 10 nM
same,IC50,[2]; Table 2,83 ± 20 nM
same,IC50,"[3]; Table 2, mean ± SE",22 ± 10 nM
same,IC50,[4]; Table 2,150 ± 14 nM
same,IC50,[5]; Table 2,120 ± 40 nM
same,IC50,[6]; [18],83 nM
same,"fold more potent than CA-4, tubulin polymerization",[7],about 2 fold
same,IC50,[7],380 ± 20 nM
same,Colchicine Binding % Inhibition ± SD,[8],84 ± 2%
C#Cc1cccc(Nc2cc(C)nc3nc(NCCCc4ccccc4)nn23)c1 [Compound 8v],IC50,"[1]; Table 2, mean ± SE",110 ± 30 nM
same,IC50,[2]; Table 2,83 ± 20 nM
same,IC50,"[3]; Table 2, mean ± SE",69 ± 10 nM
same,IC50,[4]; Table 2,160 ± 10 nM
same,IC50,[5]; Table 2,350 ± 10 nM
same,IC50,[7],430 ± 50 nM
same,Colchicine Binding % Inhibition ± SD,[8],70 ± 3%
CO[C@H]1C(=O)[C@]2(C)[C@@H](OC)C[C@H]3OC[C@@]3(OC(C)=O)[C@H]2[C@H](OC(=O)c2ccccc2)[C@]2(O)C[C@H](OC(=O)[C@H](O)[C@@H](NC(=O)OC(C)(C)C)c3ccccc3)C(C)=C1C2(C)C [cabazitaxel],IC50,[9],15 nM
CC(=O)O[C@@]12CO[C@@H]1C[C@H](O)[C@@]1(C)C(=O)[C@H](O)C3=C(C)[C@@H](OC(=O)[C@H](O)[C@@H](NC(=O)OC(C)(C)C)c4ccccc4)C[C@@](O)([C@@H](OC(=O)c4ccccc4)[C@H]21)C3(C)C [docetaxel],IC50,[9],19.5 nM
